From patent CN113813388A, “一种眼用纳米胶束及其制备方法和应用” (Zhejiang University ZJU, priority 2021, dated 2021)

Tests used:
[1] = after topical ocular administration; cited from earlier work
[2] = H2O2 (ROS) scavenging assay with hydrogen peroxide detection kit (S0038, Beyotime); format: biochemical; settings: within 15 min; Tempo concentration 100 μg/mL-1; 500 μM H2O2 in 0.01 M PBS pH 7.4

Compound: CC1(C)CCCC(C)(C)N1[O] [Tempo]
- rapidly cleared, time after application [1]: 15 to 30 s
- eliminated H2O2 [2]: 78.9%
